Reference: patent publication US20120135055A1, “Dry Powder Inhaler Formulations” (BREATH LIMITED, priority 2009, published 2012)

How the values were obtained:
[1] = Effect of humidity on prolonged storage (20% RH, 48 hours; DVS, DSC, TGA, PSD, SEM); assay type: physicochemical; details: 20% RH for 48 hours; for DSC trace, thermal behaviour of stored sample: post-humidity treatment
Experimental: In order to evaluate the effect of humidity on prolonged storage processed BDP hydrate was subjected to 20% relative humidity (RH) for 48 hours. The sample recovered after storage was analysed by DSC, TGA, PSD and SEM. In order to evaluate the effect of humidity on prolonged storage, processed BDP heptane was subjected to 20% relative humidity (RH) for 48 hours. The sample recovered after storage was analysed by DSC, TGA, PSD and SEM.

[2] = Dry Sympatec PSD analysis (particle size distribution); assay type: physicochemical; details: pre-storage

Row | Compound | DSC trace, thermal behaviour of stored sample [1] | Particle Size, cumulative distribution Q3 X10 ([1]; post-storage sample) [μ] | Particle Size, cumulative distribution Q3 X50 ([1]; post-storage sample) [μ] | Particle Size, cumulative distribution Q3 X90 ([1]; post-storage sample) [μ] | Particle size distribution relative to the inhalation range [2] | DVS mass plot, change of mass during storage [1] | Stability on prolonged storage compared with anhydrous BDP [1]
1 | CCC(=O)OCC(=O)[C@@]1(OC(=O)CC)[C@@H](C)C[C@H]2[C@@H]3CCC4=CC(=O)C=C[C@]4(C)[C@@]3(Cl)[C@@H](O)C[C@@]21C.O [BDP heptane, beclomethasone diproprionate] | no variation in the thermal behaviour | 0.68 | 2.44 | 5.29 | extremely promising and within the inhalation range | – | –
2 | CCC(=O)OCC(=O)[C@@]1(OC(=O)CC)[C@@H](C)C[C@H]2[C@@H]3CCC4=CC(=O)C=C[C@]4(C)[C@@]3(Cl)[C@@H](O)C[C@@]21C.O [BDP hydrate, beclomethasone diproprionate] | no variation in the thermal behaviour | – | 1.37 | 2.95 | well within the inhalation range | considerable weight loss due to partial dehydration | higher stability on prolonged storage than anhydrous BDP
